Reference: publication PMC7997389 (Biochemical and Biophysical Research Communications, 2021)

How the values were obtained:
[1] = system: SARS-CoV-2-GHB-03021/2020; conditions: hamster, in vivo
[2] = molecular target: human cathepsin L (Homo sapiens, UniProt P07711); assay: human cathepsin L biochemical assay; conditions: 3CLpro versus cathepsin L
[3] = system: SARS-CoV-2; conditions: monotherapy; cited from earlier work
[4] = system: SARS-CoV-2; conditions: cited from earlier work
[5] = system: SARS-CoV-2; conditions: cited from earlier work; remark: listed apart in the source
[6] = system: 3CLpro; conditions: cited from earlier work
[7] = Cytotoxicity in HeLa cells; format: cell-based; conditions: human
[8] = system: human alpha-coronavirus 229E; assay: organism not typed; format: cell-based; conditions: Huh-7, 96 h, read-out: α-CoV 229E (Huh-7) EC50

Chain of human cathepsin L (P07711 114-333): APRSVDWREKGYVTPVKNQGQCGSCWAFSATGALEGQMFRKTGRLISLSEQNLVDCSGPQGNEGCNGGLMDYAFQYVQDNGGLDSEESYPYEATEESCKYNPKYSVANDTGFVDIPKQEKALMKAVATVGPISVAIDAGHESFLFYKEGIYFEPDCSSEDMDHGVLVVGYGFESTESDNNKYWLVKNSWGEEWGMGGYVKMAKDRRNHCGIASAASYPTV

CC(C)C(=O)OC[C@H]1O[C@@H](n2ccc(NO)nc2=O)[C@H](O)[C@@H]1O [EIDD-2801]
reduction in viral RNA copies per mg of lung tissue [1]: 2.0 log10 | reduction of infectious virus titers in the lungs [1]: 4.1 log10 TCID50 per mg

CC(C)C[C@H](NC(=O)OCc1ccccc1)C(=O)N[C@@H](CC1CCNC1=O)C(O)S(=O)(=O)[O-].[Na+] (stereo partly shown) [GC-376]
selectivity against human cathepsin L in comparison with ALG-097111 [2]: significantly less selective | antiviral effect in a mouse model of SARS-CoV-2 infection [3]: failed to show a clear antiviral effect | antiviral activity in the K18-hACE2 SARS-CoV-2 infection mouse model [4]: modest antiviral activity

CN1CCN(C(=O)N[C@@H](Cc2ccccc2)C(=O)N[C@H](/C=C/S(=O)(=O)c2ccccc2)CCc2ccccc2)CC1 [K117777]
antiviral effect when TMPRSS2 was expressed ([5]; A549-ACE2 expressing TMPRSS2): abolished | inhibition of SARS-CoV-2 in cells ([5]; VeroE6, A549-ACE2 and HeLa-ACE2): potent inhibition | inhibitory effect on the 3CLpro [6]: lacks an inhibitory effect

CCC(CC)COC(=O)[C@H](C)N[P@](=O)(OC[C@H]1O[C@@](C#N)(c2ccc3c(N)ncnn23)[C@H](O)[C@@H]1O)Oc1ccccc1 [Remdesivir]
CC50 [7]: > 5000 nM | EC50 [8]: 14.5 ± 3.48 nM
